Results taken from ChEMBL document CHEMBL1135959, “The discovery of SB-435495. A potent, orally active inhibitor of lipoprotein-associated phospholipase A(2) for evaluation in man” (Bioorg Med Chem Lett, 2002).
Converted amounts (≈) assume the structure as drawn.

Assays:
[1] = molecular target: Cytochrome P450 3A4 (Homo sapiens, UniProt P08684); assay: Inhibition of cytochrome P450 3A4; format: ADME
[2] = Permeability of compound was evaluated in an artificial membrane permeability assay; format: ADME, cell membranes; settings: PAMPA; read-out: Permeability (converted)
[3] = Acid dissociation constant was determined for the compound; format: ADME
[4] = molecular target: T1, Platelet-activating factor acetylhydrolase (Homo sapiens, UniProt Q13093); assay: Inhibitory concentration against Lipoprotein-Associated Phospholipase A2 (Lp-PLA2) was estimated
T1 sequence (Q13093 whole entry): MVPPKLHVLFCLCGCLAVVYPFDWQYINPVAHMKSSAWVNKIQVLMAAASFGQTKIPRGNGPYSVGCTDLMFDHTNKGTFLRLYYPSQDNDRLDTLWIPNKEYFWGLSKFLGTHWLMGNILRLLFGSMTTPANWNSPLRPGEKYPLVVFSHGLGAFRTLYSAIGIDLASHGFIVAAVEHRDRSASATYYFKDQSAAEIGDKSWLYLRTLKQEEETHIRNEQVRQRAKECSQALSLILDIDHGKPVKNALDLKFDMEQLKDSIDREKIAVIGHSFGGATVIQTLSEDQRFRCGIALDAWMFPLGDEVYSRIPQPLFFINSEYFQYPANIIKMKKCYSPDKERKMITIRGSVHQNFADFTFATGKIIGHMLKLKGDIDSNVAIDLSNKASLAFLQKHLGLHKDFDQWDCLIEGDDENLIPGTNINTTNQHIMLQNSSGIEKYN

[5] = Oral bioavailability in dog; format: ADME, organism-based, Canis lupus familiaris; settings: in vivo, read-out: Bioavailabiility
[6] = Solubility in pure water at pH 4.7; format: physicochemical
[7] = species: Homo sapiens; assay: Concentration required to inhibit the subsequent monocyte chemotaxis by the compound during the copper catalyzed oxidation of human LDL; format: functional
[8] = molecular target: Cytochrome P450 2C9 (Homo sapiens, UniProt P11712); assay: Inhibition of cytochrome P450 2C9; format: ADME
Cytochrome P450 2C9, sequence (P11712 whole entry): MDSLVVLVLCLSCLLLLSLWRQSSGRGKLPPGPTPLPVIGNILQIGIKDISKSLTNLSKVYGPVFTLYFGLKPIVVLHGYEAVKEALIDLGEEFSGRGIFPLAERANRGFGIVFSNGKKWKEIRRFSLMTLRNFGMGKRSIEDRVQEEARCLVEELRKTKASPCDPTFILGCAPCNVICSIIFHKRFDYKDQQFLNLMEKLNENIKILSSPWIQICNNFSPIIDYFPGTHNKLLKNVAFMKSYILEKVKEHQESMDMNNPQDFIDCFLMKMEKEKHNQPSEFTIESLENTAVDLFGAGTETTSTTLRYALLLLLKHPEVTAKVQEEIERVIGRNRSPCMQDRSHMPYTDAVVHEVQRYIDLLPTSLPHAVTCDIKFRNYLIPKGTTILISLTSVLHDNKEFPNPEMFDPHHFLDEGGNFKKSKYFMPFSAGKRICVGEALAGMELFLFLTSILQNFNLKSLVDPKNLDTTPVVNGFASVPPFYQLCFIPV

[9] = Oral bioavailability in rat; format: ADME, organism-based; settings: in vivo
[10] = molecular target: T2, Cytochrome P450 1A2 (Homo sapiens, UniProt P05177); assay: Inhibition of cytochrome P450 1A2; format: ADME
T2 sequence (P05177 whole entry): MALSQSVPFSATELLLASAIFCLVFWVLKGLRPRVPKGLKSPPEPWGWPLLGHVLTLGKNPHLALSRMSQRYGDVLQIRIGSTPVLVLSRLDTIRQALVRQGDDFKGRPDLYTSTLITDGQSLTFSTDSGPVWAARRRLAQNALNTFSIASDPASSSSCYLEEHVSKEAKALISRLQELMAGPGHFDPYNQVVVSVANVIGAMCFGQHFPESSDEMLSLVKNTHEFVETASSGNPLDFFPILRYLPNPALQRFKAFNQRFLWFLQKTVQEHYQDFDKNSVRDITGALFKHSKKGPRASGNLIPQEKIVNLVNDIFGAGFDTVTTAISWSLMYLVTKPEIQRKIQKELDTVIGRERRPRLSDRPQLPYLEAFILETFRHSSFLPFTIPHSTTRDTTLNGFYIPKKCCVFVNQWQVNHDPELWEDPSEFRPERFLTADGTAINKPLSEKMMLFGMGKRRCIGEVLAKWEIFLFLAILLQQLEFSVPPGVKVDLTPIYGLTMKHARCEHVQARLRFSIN

[11] = molecular target: Cytochrome P450 2D6 (Homo sapiens, UniProt P10635); assay: Inhibition of cytochrome P450 2D6; format: ADME
Cytochrome P450 2D6, sequence (P10635 whole entry): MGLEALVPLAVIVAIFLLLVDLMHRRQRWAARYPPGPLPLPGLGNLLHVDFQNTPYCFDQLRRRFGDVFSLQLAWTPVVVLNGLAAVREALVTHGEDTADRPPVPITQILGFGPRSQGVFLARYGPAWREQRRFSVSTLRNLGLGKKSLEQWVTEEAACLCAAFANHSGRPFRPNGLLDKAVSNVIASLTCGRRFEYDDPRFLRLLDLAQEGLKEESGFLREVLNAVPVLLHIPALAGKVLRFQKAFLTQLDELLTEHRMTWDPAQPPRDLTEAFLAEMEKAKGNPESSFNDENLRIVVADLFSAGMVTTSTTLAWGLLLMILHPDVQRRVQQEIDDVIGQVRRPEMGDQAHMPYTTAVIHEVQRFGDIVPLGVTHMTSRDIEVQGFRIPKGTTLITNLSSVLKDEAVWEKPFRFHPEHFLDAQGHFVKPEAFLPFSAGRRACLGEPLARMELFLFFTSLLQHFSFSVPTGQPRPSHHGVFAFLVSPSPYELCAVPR

[12] = species: Homo sapiens; assay: Concentration required to inhibit the production of lyso-PtdCho by the compound during the copper catalyzed oxidation of human LDL; format: functional
[13] = molecular target: Cytochrome P450 2C19 (Homo sapiens, UniProt P33261); assay: Inhibition of cytochrome P450 2C19; format: ADME
Cytochrome P450 2C19, sequence (P33261 whole entry): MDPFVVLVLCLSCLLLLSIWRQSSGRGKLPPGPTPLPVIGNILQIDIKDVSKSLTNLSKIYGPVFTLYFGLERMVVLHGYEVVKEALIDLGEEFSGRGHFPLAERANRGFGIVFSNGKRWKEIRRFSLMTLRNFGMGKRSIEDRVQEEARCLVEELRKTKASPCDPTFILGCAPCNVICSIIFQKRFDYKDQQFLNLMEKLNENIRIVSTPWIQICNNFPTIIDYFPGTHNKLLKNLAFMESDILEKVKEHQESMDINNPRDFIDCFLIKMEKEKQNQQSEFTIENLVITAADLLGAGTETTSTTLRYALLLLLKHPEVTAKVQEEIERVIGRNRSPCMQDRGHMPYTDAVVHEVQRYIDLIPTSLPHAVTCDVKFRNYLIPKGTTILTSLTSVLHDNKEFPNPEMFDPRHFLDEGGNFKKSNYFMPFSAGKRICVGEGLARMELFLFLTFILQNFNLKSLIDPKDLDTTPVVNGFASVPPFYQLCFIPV

Cytochrome P450 3A4, sequence (P08684 whole entry): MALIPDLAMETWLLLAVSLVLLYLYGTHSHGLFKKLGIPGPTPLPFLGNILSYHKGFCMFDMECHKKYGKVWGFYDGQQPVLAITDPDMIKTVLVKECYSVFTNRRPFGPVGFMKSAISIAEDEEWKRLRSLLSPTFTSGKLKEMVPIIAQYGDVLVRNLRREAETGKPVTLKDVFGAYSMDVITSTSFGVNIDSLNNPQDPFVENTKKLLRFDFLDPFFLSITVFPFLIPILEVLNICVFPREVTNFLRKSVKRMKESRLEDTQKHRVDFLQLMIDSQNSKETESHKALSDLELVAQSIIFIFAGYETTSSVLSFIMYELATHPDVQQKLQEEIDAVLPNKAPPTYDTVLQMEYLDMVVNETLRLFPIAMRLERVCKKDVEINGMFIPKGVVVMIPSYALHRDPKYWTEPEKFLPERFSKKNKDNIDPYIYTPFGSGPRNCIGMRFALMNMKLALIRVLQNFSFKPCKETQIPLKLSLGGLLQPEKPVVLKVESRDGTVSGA

IC50 [1] | Papp [2] | IC50 [4] | Structure (SMILES) | other results
30 µM | < 0.278 ×10⁻⁶ cm/s |  | CN(C)CCN(Cc1ccc(-c2ccc(C(F)(F)F)cc2)cc1)C(=O)Cn1cc(Cc2cnn(C)c2)c(=O)nc1SCc1ccc(F)cc1 | 
5 µM | 8.06 ×10⁻⁶ cm/s |  | CCN(CC)CCN(Cc1ccc(-c2ccc(Cl)cc2)cc1)C(=O)Cn1cc(Cc2cnn(C)c2)c(=O)nc1SCc1ccc(F)cc1 | pKa [3]: 8.3
10 µM | < 0.278 ×10⁻⁶ cm/s |  | CN1CCN(CCCN(Cc2ccc(-c3ccc(Cl)cc3)cc2)C(=O)Cn2cc(Cc3cnn(C)c3)c(=O)nc2SCc2ccc(F)cc2)CC1 | 
2 µM | < 0.278 ×10⁻⁶ cm/s |  | CCN(CC)CCCN(Cc1ccc(-c2ccc(Cl)cc2)cc1)C(=O)Cn1cc(Cc2cnn(C)c2)c(=O)nc1SCc1ccc(F)cc1 | pKa [3]: 9
6 µM | 1.11 ×10⁻⁶ cm/s |  | Cn1cc(Cc2cn(CC(=O)N(CCN3CCCC3)Cc3ccc(-c4ccc(Cl)cc4)cc3)c(SCc3ccc(F)cc3)nc2=O)cn1 | 
10 µM | 18.9 ×10⁻⁶ cm/s | 0.00017 µM | Cn1cc(Cc2cn(CC(=O)N(CCN3CCCCC3)Cc3ccc(-c4ccc(C(F)(F)F)cc4)cc3)c(SCc3ccc(F)cc3)nc2=O)cn1 | 
 |  | 0.0002 µM | COc1ncc(Cc2cn(CC(=O)N(CCO)Cc3ccc(-c4ccc(Cl)cc4)cc3)c(SCc3ccc(F)cc3)nc2=O)cn1 | 
> 0.5 µM |  |  | CN(C)C(=O)CN(Cc1ccc(-c2ccc(Cl)cc2)cc1)C(=O)Cn1cc(Cc2cnn(C)c2)c(=O)nc1SCc1ccc(F)cc1 | 
 |  | 0.0001 µM | Cn1cc(Cc2cn(CC(=O)N(CC(=O)N3CCOCC3)Cc3ccc(-c4ccc(C(F)(F)F)cc4)cc3)c(SCc3ccc(F)cc3)nc2=O)cn1 | 
10 µM | 4.72 ×10⁻⁶ cm/s |  | CCN(CC)CCN(Cc1ccc(-c2ccc(C(F)(F)F)cc2)cc1)C(=O)Cn1cc(Cc2cnn(C)c2)c(=O)nc1SCc1ccc(F)cc1 | bioavailability [5]: 24%; solubility [6]: 5000 µg/mL (≈ 6.94 mM); IC50 [7]: 0.01 µM; IC50 [8]: 100 µM; bioavailability [9]: 13%; IC50 [10]: 100 µM; IC50 [11]: 37 µM; IC50 [12]: 0.023 µM; IC50 [13]: > 40 µM
 |  | 0.001 µM | COc1ncc(Cc2cn(CC(=O)N(CC(=O)O)Cc3ccc(-c4ccc(Cl)cc4)cc3)c(SCc3ccc(F)cc3)nc2=O)cn1 | 
< 0.5 µM |  | 0.0002 µM | COc1ncc(Cc2cn(CC(=O)N(CC(=O)N(C)C)Cc3ccc(-c4ccc(Cl)cc4)cc3)c(SCc3ccc(F)cc3)nc2=O)cn1 | 
15 µM | 0.556 ×10⁻⁶ cm/s |  | Cn1cc(Cc2cn(CC(=O)N(CCN)Cc3ccc(-c4ccc(Cl)cc4)cc3)c(SCc3ccc(F)cc3)nc2=O)cn1 | 
17 µM | 0.278 ×10⁻⁶ cm/s |  | CN(C)CCCN(Cc1ccc(-c2ccc(Cl)cc2)cc1)C(=O)Cn1cc(Cc2cnn(C)c2)c(=O)nc1SCc1ccc(F)cc1 | 
8 µM | 0.556 ×10⁻⁶ cm/s |  | CN(C)CCN(Cc1ccc(-c2ccc(Cl)cc2)cc1)C(=O)Cn1cc(Cc2cnn(C)c2)c(=O)nc1SCc1ccc(F)cc1 | 
19 µM | 0.556 ×10⁻⁶ cm/s |  | Cn1cc(Cc2cn(CC(=O)N(CCO)Cc3ccc(-c4ccc(Cl)cc4)cc3)c(SCc3ccc(F)cc3)nc2=O)cn1 | 
 |  | 0.0002 µM | COc1ncc(Cc2cn(CC(=O)N(CCN(C)C)Cc3ccc(-c4ccc(Cl)cc4)cc3)c(SCc3ccc(F)cc3)nc2=O)cn1 | 
31 µM | < 0.278 ×10⁻⁶ cm/s |  | Cn1cc(Cc2cn(CC(=O)N(CC(=O)O)Cc3ccc(-c4ccc(C(F)(F)F)cc4)cc3)c(SCc3ccc(F)cc3)nc2=O)cn1 | 
